Results published in the CheMixHub viscosity set.
± gives the uncertainty stated by the source.

Test: xn = mol fraction of the nth substance listed

COCCOCCOCCOC + O
viscosity [mPa·s], 101.33 kPa
Details	298 K	298.15 K
x1 = 0.0057	–	1.058 ± 0.008
x1 = 0.0077	1.15 ± 0.03	–
x1 = 0.0124	–	1.278 ± 0.008
x1 = 0.0143	1.38 ± 0.036	–
x1 = 0.0176	–	1.444 ± 0.009
x1 = 0.0247	–	1.737 ± 0.011
x1 = 0.0255	1.83 ± 0.048	–
x1 = 0.0326	–	2.063 ± 0.013
x1 = 0.0455	–	2.613 ± 0.015
x1 = 0.0484	2.79 ± 0.073	–
x1 = 0.0673	–	3.462 ± 0.02
x1 = 0.0796	3.89 ± 0.1	–
x1 = 0.0814	3.95 ± 0.1	–
x1 = 0.0826	–	4.032 ± 0.022
x1 = 0.0934	4.25 ± 0.11	–
x1 = 0.1017	–	4.344 ± 0.024
x1 = 0.1022	4.4 ± 0.12	–
x1 = 0.1092	4.49 ± 0.12	–
x1 = 0.1166	4.6 ± 0.12	–
x1 = 0.1215	–	4.581 ± 0.025
x1 = 0.1407	4.68 ± 0.12	–
x1 = 0.1423	–	4.678 ± 0.026
x1 = 0.1607	–	4.625 ± 0.026
x1 = 0.1731	4.63 ± 0.12	–
x1 = 0.1907	–	4.512 ± 0.025
x1 = 0.2117	4.39 ± 0.11	–
x1 = 0.2288	–	4.179 ± 0.023
x1 = 0.2745	3.87 ± 0.1	3.819 ± 0.021
x1 = 0.3074	–	3.588 ± 0.02
x1 = 0.3483	3.29 ± 0.086	–
x1 = 0.3653	–	3.236 ± 0.018
x1 = 0.4097	–	3.035 ± 0.017
x1 = 0.4311	2.9 ± 0.076	–
x1 = 0.4857	–	2.706 ± 0.016
x1 = 0.5899	2.41 ± 0.063	–
x1 = 0.593	–	2.398 ± 0.014
x1 = 0.6382	–	2.311 ± 0.014
x1 = 0.702	–	2.269 ± 0.014
x1 = 0.745	2.16 ± 0.056	–
x1 = 0.7475	–	2.22 ± 0.013
x1 = 0.7813	–	2.166 ± 0.013
x1 = 0.7839	2.1 ± 0.055	–
x1 = 0.8141	–	2.121 ± 0.013
x1 = 0.8687	2.04 ± 0.053	–
x1 = 0.8937	–	2.068 ± 0.013
x1 = 0.9665	–	2.035 ± 0.013

Oc1ccc2ccccc2c1 + CCCCO
viscosity [mPa·s], 101 kPa
Details	x1 = 0.04	x1 = 0.08	x1 = 0.12	x1 = 0.16	x1 = 0.2
293.15 K	3.344 ± 0.075	3.751 ± 0.083	4.242 ± 0.093	4.879 ± 0.11	5.596 ± 0.12
303.15 K	2.529 ± 0.058	2.808 ± 0.063	3.17 ± 0.071	3.582 ± 0.08	4.024 ± 0.089
313.15 K	1.974 ± 0.046	2.175 ± 0.05	2.421 ± 0.055	2.751 ± 0.062	3.144 ± 0.07
323.15 K	1.592 ± 0.039	1.712 ± 0.041	1.882 ± 0.044	2.11 ± 0.049	2.374 ± 0.054
